Test results taken from ChEMBL document CHEMBL5252568, “Rational design of HJH antimicrobial peptides to improve antimicrobial activity” (Bioorg Med Chem Lett, 2023).

Tests used:
Escherichia coli = assay: Antimicrobial activity against Escherichia coli ATCC 25922 assessed as reduction in microbial growth; type: functional
Staphylococcus aureus = assay: Antimicrobial activity against Staphylococcus aureus ATCC 29213 assessed as reduction in microbial growth; type: functional
Candida albicans = assay: Antimicrobial activity against Candida albicans ATCC 90029 assessed as reduction in microbial growth; type: functional
[1] = Stability in human serum assessed as compound remaining measured after 3 hr by RP-HPLC analysis; type: ADME, cell-free; conditions: read-out: Stability
HEK293 [2] = assay: Cytotoxicity against human HEK293 cells assessed as reduction in cell viability at 128 uM relative to control; type: toxicity, cell-based; conditions: hek293, 128 µM
[3] = Hemolytic activity in human RBC assessed as hemolysis at 2 uM relative to control; type: toxicity, cell-based, Erythrocyte; conditions: red blood cells, read-out: Activity
[4] = Stability in human serum assessed as compound remaining measured after 1 hr by RP-HPLC analysis; type: ADME, cell-free; conditions: read-out: Stability
HEK293 [5] = assay: Cytotoxicity against human HEK293 cells assessed as reduction in cell viability at 1 to 128 uM relative to control; type: toxicity, cell-based; conditions: hek293, 128 µM, dose 1-128 µM
[6] = Hemolytic activity in human RBC assessed as hemolysis at 128 uM relative to control; type: toxicity, cell-based, Erythrocyte; conditions: red blood cells, read-out: Activity
[7] = Hemolytic activity against human RBC assessed as concentration required to cause 10% hemolysis up to 256 uM relative to control; type: toxicity, cell-based; conditions: erythrocyte
HEK293 [8] = assay: Cytotoxicity against human HEK293 cells assessed as reduction in cell viability up to 256 uM; type: toxicity, cell-based; conditions: hek293, 256 µM

Compound	MIC (Escherichia coli)	MIC (Staphylococcus aureus)	MIC (Candida albicans)	remaining at 3 h [1]	Activity (HEK293 [2])	hemolysis at 2 µM [3]	remaining at 1 h [4]	Activity (HEK293 [5])	hemolysis at 128 µM [6]	Activity [7]	Activity (HEK293 [8])
C[C@@H]1[C@H](O)[C@@H](C)/C=C/C=C/C=C/C=C/C=C/C=C/C=C/[C@H](O[C@@H]2O[C@H](C)[C@@H](O)[C@H](N)[C@@H]2O)C[C@@H]2O[C@](O)(C[C@@H](O)C[C@@H](O)[C@H](O)CC[C@@H](O)C[C@@H](O)CC(=O)O[C@H]1C)C[C@H](O)[C@H]2C(=O)O [AMPHOTERICIN B]	0.4 µg/mL	0.4 µg/mL									
OC(Cn1cncn1)(Cn1cncn1)c1ccc(F)cc1F [FLUCONAZOLE]			12.5 µg/mL								
H-KKLLKKLLRLLKVLLR-OH	25 µg/mL	0.75 µg/mL	3 µg/mL	< 9%	11%	90%	60%	Toxic			
H-KKLLRLLKVLLR-OH	1.5 µg/mL	1.5 µg/mL	50 µg/mL	< 9%	50%		60%	Toxic	35%		
H-KLLKHKLLVTLA-OH	50 µg/mL	50 µg/mL	> 200 µg/mL	< 9%						Non-Toxic	Non-Toxic
H-KLLKHKLLVTLR-OH	50 µg/mL	12.5 µg/mL	> 200 µg/mL							Non-Toxic	Non-Toxic
H-KLLKRKLLVLLR-OH	12.5 µg/mL	3 µg/mL	> 200 µg/mL								
H-KLLKRKLLVTLR-OH	25 µg/mL	6.25 µg/mL	> 200 µg/mL							Non-Toxic	Non-Toxic
